Results: patent US8759363B2, “Quinazoline-based T cell proliferation inhibitors” (Yissum Research Development Company of the Hebrew …, priority 2010, dated 2014)
Like-named read-outs stand apart in the source and are kept apart here.

Assays:
[1] = tested on: 2C (stimulated) cells; assay: MLR with resting control cells, stimulated 2C cells; assay type: cell-based, mouse; details: 0.5 μM, 72 h MLR with IL-7; no inhibitor 3805
Source text: (§1) The aim of this test was to determine whether 2 affects only the proliferating cells or there is a general mechanism affecting all cell numbers. For this purpose we mixed 3 cell types: […]: BALB/c, 2C and OT1; […]: CB6F1, TEA and OT2. The OT1 and OT2 are splenocytes that were isolated from OT1 and OT2 mice (Jackson Laboratories, Bar Harbor, Me.),
(§2) Thus, the ability to monitor the fate of proliferation and resting cells by FACS was enabled due to the use of the MLR described above for CD4+ and CD8+ and the addition of OT2 and OT1 splenocytes, respectively.
(§3) Proliferating cells often secrete cytokines that induce survival of neighbouring cells; since the proliferation was expected to be inhibited we added 50 ng/ml of IL-7. This concentration is sufficient to keep the cells alive, but not to induce proliferation.
Irradiated Balb splenocytes were incubated for 72 h with 2C, and OT1 splenocytes in the presence of IL-7 W/O inhibitor.
The CD4+ and CD8+ were stimulated to proliferate, whereas in the absence of specific stimuli the OT1 and OT2 cell populations were resting, and theses cells were kept alive by the administration of IL-7. […] The number of 2C and OT1 cells that were treated with 0.5 μM 2 was 286 and 1148, respectively, while the number of 2C and OT1 cells that were treated with 0.5 μM 21 (control) was 4767 and 2468, respectively. This is depicted as a bar-graph in FIG. 8C.

[2] = tested on: NIH3T3; assay: NIH3T3 proliferation, BrdU uptake; assay type: cell-based; details: Mus musculus
Method: (§4) Cells were depleted of fetal calf serum (FCS) for 12 hours. They were then stimulated to proliferate by addition of ConA (10 μg/ml) for PBMC from healthy individuals and for Jurkat cells, FCS (10%) for HEK293 and A375 cells, PDGF (30 ng/ml) for NIH 3T3 cells, and EGF (30 ng/ml) for MDA-MB-231, Cells (1×10^5) were cultured in 96-well plates for 3 days in the presence or absence of inhibitors at the concentrations specified in the text. Each condition was tested in duplicate wells.
(§5) Proliferation was assessed by BrdU incorporation using a colorimetric ELISA kit (Roche, Germany). Subsequent to labeling with 10 μM BrdU, DNA was denatured and the cells were incubated with anti-BrdU-POD, prior to the addition of colorimetric substrate (TMB). The reaction product was quantified by measuring absorbance at 450 nm in an ELISA plate reader (ELx800 BIO-TEK Instruments Inc.).
To characterize the mode of action of 2 (S101) in more detail, we first examined whether 2 inhibits non-hematopoietic cell lines. We studied the effect of 2 on the growth of four cell lines: NIH 3T3 (mouse embryonic fibroblasts), A-431 (human vulval carcinoma cells), MDA-MB-468 (human breast carcinoma cells), and PANC-1 (human pancreatic carcinoma cells) (FIGS. 1A-B). We also tested the inhibitors on human keratinocytes. […]

[3] = tested on: OT2 (resting) cells; assay: MLR with resting control cells, resting OT2 cells; assay type: cell-based, mouse; details: 0.5 μM, 72 h MLR with IL-7; no inhibitor 1025
Source text: as §1, §2, §3
(§6) The number of TEA and OT2 cells that were treated with 0.5 μM 2 was 1452 and 826, respectively, while the number of 2C and OT1 cells that were treated with 0.5 μM 21 was 3003 and 903, respectively. This is depicted as a bar-graph in FIG. 9C.

[4] = tested on: TEA (stimulated) cells; assay: MLR with resting control cells, stimulated TEA cells; assay type: cell-based, mouse; details: 0.5 μM, 72 h MLR with IL-7; no inhibitor 3850
Source text: as §1, §2, §3, §6

[5] = tested on: CD8+ (2C) and CD4+ (TEA) T cells; assay: MLR, double-positive CD8+1B2+ (2C) or CD4+/Va2+ (TEA) effector cells by FACS; assay type: cell-based, mouse; details: 72 h MLR
Source text: Mice used included male and female 6- to 12-week-old CB6/F1 mice, obtained from the Roscoe B. Jackson Memorial Laboratory (The Jackson Laboratory, Bar Harbor, Me., http://www.jax.org). A breeding pair of transgenic (Tg) H-2b mice expressing the T-cell antigen receptor (TCR) 1B2 from the CD8+ clone 2C with specificity for H-2Ld was kindly provided by Janko Nikolic-Zugic (Memorial Sloan-Kettering Cancer Center, New York, http://www.mskcc.org). A breeding pair of Tg H-2b mice expressing the TCR from the CD4+ clone known as TEA with specificity for I-Ead allopeptide, cross-presented by host APC and bound to I-Ab and was kindly provided by Alexander Y. Rudensky (University of Washington, Seattle). I-Ead allopeptide corresponds to the positions 52 to 68 from the alpha-chain of I-E class II molecules and is expressed in all APCs from H-2b/I-E+ strains (CB6F1-hybrid of C57BL/6 and Balb/c). C57BL/6 mice are H-2b but I-E−, whereas BALB/c are H-2d and I-E+, and therefore their F1 hybrids are H-2b/1-E+ and able to directly present antigen.
Responder 2C splenocytes were harvested, and the cell suspensions were treated with Tris-buffered ammonium chloride to remove RBC. […] On day 3, the MLR cultures were harvested, and analyzed by FACS for CD4 or CD8 levels.
FACS analysis was performed using a modified FACScan (BD Biosciences, Mountain View, Calif.). Fluorescence data were collected during one minute. […]

[6] = tested on: Jurkat cells; assay: Jurkat cell proliferation, BrdU incorporation; assay type: cell-based, human; details: BrdU uptake
Method: as §4, §5
Since we were not prejudiced towards any specific protein kinase, we used a biological assay for T cell proliferation. We tested our libraries for inhibition of proliferation of PBMC and Jurkat cells (Table 3). Cell proliferation was measured by BrdU uptake. […] PBMC cells were stimulated by a non-specific T cell mitogen, Concanavalin A (ConA). All of the compounds that were tested inhibited proliferation at micromolar or sub-micromolar concentrations.

COc1cc(-c2nc(Nc3ccc(C)cc3)c3ccccc3n2)cc(OC)c1OC [Compound 2, N-p-tolyl-2-(3,4,5-trimethoxyphenyl)quinazolin-4-amine]
number of 2C (stimulated) cells [1]: 286
IC50 ([2]; NIH3T3, PDGF (30 ng/ml) activated, read-out: IC50 of stimulated cells): ~7000 nM
IC50 ([2]; NIH3T3, non-stimulated, read-out: IC50 of non-stimulated cells): ~3000 nM
number of OT2 (resting) cells [3]: 826
number of TEA (stimulated) cells [4]: 1452
percentage of double-positive effector cells [5]: reduced in a dose dependent manner
IC50 ([6]; nM ± SD, read-out: IC50 Jurkat cells proliferation inhibition): 29 ± 0.23 nM
IC50 ([6]; Homo sapiens, Jurkat, nM ± SD, read-out: IC50 Jurkat cells proliferation inhibition): 30 nM
IC50 ([6]; Homo sapiens, Jurkat, non-stimulated, read-out: IC50 of non-stimulated cells): 50 nM
IC50 ([6]; Homo sapiens, Jurkat, stimulated, read-out: IC50 of stimulated cells): 100 nM
